From PMC5669903
Where “and” joins values, the source holds several entries; their conditions need not be identical. Equal entries are not always repeated. Where two headings read alike, the source gives them in different places.

Legend:
TMV CP discs [1] = target: T1, TMV CP discs (Tobacco mosaic virus, UniProt P69687); assay type: binding; conditions: for Kd: 20°C
T1 construct: 6×His (N, cleaved yes); made in house; host or cells: Escherichia coli BL21 (DE3)-plysS, pET28a
Excerpt: We next determined the affinity between CP and NNM using two other independent methods, fluorescence spectrum and ITC.

TMV particles = assay: MST binding of NNM to TMV particles; design: species or system Tobacco mosaic virus
TMV RNA = assay: ITC binding of NNM to TMV RNA; design: species or system Tobacco mosaic virus; conditions: 20°C
mutant TMV CP monomer = target: T2, mutant TMV CP monomer (Tobacco mosaic virus, UniProt P69687, R72G/S16G/S50G/Y73G); assay: biochemical; assay type: binding; conditions: Kd to mutant CP monomer, MST, 20°C
T2 construct: 6×His; made in house

mutated CP discs = mutated CP discs (Tobacco mosaic virus, UniProt P69687, R72G/S16G/S50G/Y73G); assay: Disassembly of mutated CP discs by SEC and TEM; assay type: biochemical; conditions: 1:20 (CP discs:NNM) ratio
[2] = target: wt CP four-layer aggregate discs (Tobacco mosaic virus, UniProt P69687); assay: Disassembly of wt CP discs (isolated from TMV particles) by SEC
TMV = assay: Curative activity against TMV, half leaf; assay type: in vivo, Tobacco mosaic virus; conditions: for Curative activity against TMV: half leaf
Mutant CP Discs = target: T3, Mutant CP Discs (Tobacco mosaic virus, UniProt P69687, R72G/S16G/S50G/Y73G); assay: biochemical; assay type: binding; conditions: MST, 20°C
T3 construct: 6×His; made in house

TMV CP replication = assay: Leaf disc method with western blot of TMV CP
TMV CP monomer = TMV CP monomer (Tobacco mosaic virus, UniProt P69687); assay: biochemical; conditions: Kd to CP monomer
TMV CP discs [3] = target: T1, TMV CP discs; assay: biochemical; assay type: binding
[4] = target: recombinant TMV CP four-layer aggregate discs (Tobacco mosaic virus, UniProt P69687); assay: Disassembly of recombinant TMV CP discs by SEC and TEM
TMV CP mutant [5] = target: T4, TMV CP mutant (Tobacco mosaic virus, UniProt P69687, R72G/S16G/S50G/Y73G); assay type: binding; conditions: fluorescence spectrum; 5 mM compounds and 0.5 mM TMV CP; read-out: Kd mutant (Fluo.)
T4 construct: 6×His; made in house

TMV CP mutant [6] = target: T4, TMV CP mutant; assay type: binding; conditions: ITC, one-set-of-sites model; 5 mM compounds and 0.5 mM TMV CP

T3 sequence (P69687 whole entry S16G/S50G/R72G/Y73G): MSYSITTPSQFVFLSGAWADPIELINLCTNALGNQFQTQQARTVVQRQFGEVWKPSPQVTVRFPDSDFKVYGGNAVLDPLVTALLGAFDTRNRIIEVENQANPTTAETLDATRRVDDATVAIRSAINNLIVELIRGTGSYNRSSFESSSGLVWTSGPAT
recombinant TMV CP four-layer aggregate discs, sequence (P69687 whole entry): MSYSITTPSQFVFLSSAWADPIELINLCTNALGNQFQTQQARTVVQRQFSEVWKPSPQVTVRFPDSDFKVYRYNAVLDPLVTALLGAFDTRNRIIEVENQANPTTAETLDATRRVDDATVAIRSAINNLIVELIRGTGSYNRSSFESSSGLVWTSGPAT
T1 sequence (P69687 whole entry): as above
TMV CP monomer, sequence (P69687 whole entry): as above
T2 sequence (P69687 whole entry S16G/S50G/R72G/Y73G): as the sequence (P69687 whole entry S16G/S50G/R72G/Y73G) above
T4 sequence (P69687 whole entry S16G/S50G/R72G/Y73G): as above
wt CP four-layer aggregate discs, sequence (P69687 whole entry): as the sequence (P69687 whole entry) above
mutated CP discs, sequence (P69687 whole entry R72G/S16G/S50G/Y73G, looked up): as the sequence (P69687 whole entry S16G/S50G/R72G/Y73G) above

**Q.** For `CNCC(=O)N[C@@H](CO)C(=O)N[C@H]1[C@H](O)[C@@H](O)[C@H](n2ccc(N)nc2=O)O[C@@H]1C(N)=O` [NNM, Ningnanmycin], which “K (binding constant) to TMV CP discs” value (TMV CP discs [1]) is on record?
**A.** Its value is 534000 ± 27500 M⁻¹.

**Q.** What about the “number of NNM molecules interacting with one CP disc” value (TMV CP discs [1]) of the same compound?
**A.** Its value is 39 to 41 and 39–41.

**Q.** What about the ΔG (TMV CP discs [1]) of the same compound?
**A.** The ΔG was −6.0.

**Q.** And the ΔH (TMV CP discs [1])?
**A.** The ΔH was 17.2 kcal/mol.

**Q.** And the Kd (TMV particles; 20°C)?
**A.** The Kd was 25.8 µM.

**Q.** What about the Kd (TMV particles; 25°C) of the same compound?
**A.** Its Kd is 31 µM.

**Q.** What about the Kd (TMV particles; 30°C) of the same compound?
**A.** The Kd was 52.3 µM.

**Q.** What about the Kd (TMV particles; from 20 to 30°C) of the same compound?
**A.** Its Kd is 25.8 to 52.3 µM.

**Q.** And the Kd (TMV RNA)?
**A.** Its Kd is 16.5 µM.

**Q.** And the Kd (mutant TMV CP monomer)?
**A.** Its Kd is 212 µM and ~212 µM.

**Q.** And the “mutated protein discs disassembled into protein monomers” value (mutated CP discs)?
**A.** Its value is “approximately 35%”.

**Q.** And the “disassembly of wt CP four-layer aggregate discs” value [2]?
**A.** Its value is “completely disassembled into monomeric proteins”.

**Q.** What about the “Curative activity against TMV” value (TMV; 100 μg/mL) of the same compound?
**A.** Its value is 29.8%.

**Q.** What about the “Curative activity against TMV” value (TMV; 500 μg/mL) of the same compound?
**A.** Its value is 60.0%.

**Q.** What about the Kd (Mutant CP Discs; Kd to mutant CP discs) of the same compound?
**A.** The Kd was 43.5 µM and ~43.5 µM.

**Q.** And the “bands of the CP in western blot” value (TMV CP replication; 0.5 mg/mL NNM for 24 h)?
**A.** The value was “weak”.

**Q.** And the “bands of the CP in western blot” value (TMV CP replication; 0.5 mg/mL NNM, after 72 h)?
**A.** The value was “not visible”.

**Q.** And the “bands of CP in western blot” value (TMV CP replication; 500 μg/mL NNM, time not stated)?
**A.** Its value is “weak”.

**Q.** What about the Kd (TMV CP monomer) of the same compound?
**A.** The Kd was 18.6 µM and ~18.6 µM.

**Q.** What about the Kd (TMV CP discs [3]; Kd to CP discs) of the same compound?
**A.** Its Kd is 1.1 to 3.96 µM.

**Q.** And the Kd (TMV CP discs [3]; Kd to TMV CP discs)?
**A.** Its Kd is 1.1 µM and 1.29 µM and 3.96 µM and ~1.1 µM.

**Q.** What about the “disassembly of discs into monomeric proteins” value [4] of the same compound?
**A.** The value was “completely disassembled into monomeric proteins”.

**Q.** And the “portion of the discs disassembled into monomeric proteins” value [4]?
**A.** Its value is 60%.

**Q.** What about the “visibility of four-layer aggregate discs by TEM” value [4] of the same compound?
**A.** The value was “invisible”.

**Q.** With Cytosinpeptidemycin as the compound, how does the Kd (TMV CP discs [1]; ITC, one-set-of-sites model) read?
**A.** The Kd was 5.41 µM.

**Q.** What about the Kd (TMV CP discs [1]; fluorescence spectrum, read-out: Kd to TMV CP discs (Fluo.)) of the same compound?
**A.** Its Kd is 23.2 µM.

**Q.** What about the “Curative activity against TMV” value (TMV; 100 μg/mL) of the same compound?
**A.** Its value is 11.9%.

**Q.** What about the “Curative activity against TMV” value (TMV; 500 μg/mL) of the same compound?
**A.** The value was 48.7%.

**Q.** What about the “anti-TMV activity in words” value (TMV; 500 μg/mL, vivo experiment) of the same compound?
**A.** Its value is “significant anti-TMV activities”.

**Q.** What about the “Kd to mutant CP discs” value (Mutant CP Discs) of the same compound?
**A.** The value was “No binding”.

**Q.** And the “Kd to mutant CP discs” value (Mutant CP Discs; listed as cytosinpeptidemycin)?
**A.** The value was “no binding”.

**Q.** And the Kd (TMV CP mutant [5])?
**A.** Its Kd is 250 µM.

**Q.** And the Kd (TMV CP discs [3]; MST, 20°C, read-out: Kd to TMV CP discs)?
**A.** The Kd was 4.84 µM.

**Q.** What about the Kd (TMV CP mutant [6]) of the same compound?
**A.** Its Kd is 33 µM.
